For 28 compounds, EC50 results are on record in US10011615B2, “Heterobicyclo-substituted [1,2,4]triazolo[1,5-c]quinazolin-5-amine compounds with A2A anatagonist properties” (Merck Sharp & Dohme Corp., priority 2012, dated 2018).

What is called EC50 is the concentration at which the effect is half-maximal.

The structures appear in SMILES notation. Values joined by “and” are separate entries in the source; they are usually repeats but may differ in a detail not shown here. Equal values may be shown once. Where a name gives a salt, the structure may show the parent alone.

T1 sequence (P29274 whole entry): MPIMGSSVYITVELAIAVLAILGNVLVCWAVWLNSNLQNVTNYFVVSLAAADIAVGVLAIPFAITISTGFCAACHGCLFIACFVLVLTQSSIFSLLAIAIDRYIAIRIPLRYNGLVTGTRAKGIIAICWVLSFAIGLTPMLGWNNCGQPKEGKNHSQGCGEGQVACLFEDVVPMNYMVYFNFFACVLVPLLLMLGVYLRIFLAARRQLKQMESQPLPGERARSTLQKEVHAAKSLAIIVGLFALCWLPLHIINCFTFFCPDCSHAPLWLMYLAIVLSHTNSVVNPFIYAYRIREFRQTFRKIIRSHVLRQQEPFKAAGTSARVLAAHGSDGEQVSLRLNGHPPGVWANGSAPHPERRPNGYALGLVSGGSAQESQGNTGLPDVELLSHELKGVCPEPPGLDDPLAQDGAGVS

This test concerns the target T1, human A2a receptor (Homo sapiens, UniProt P29274).
T1 construct: purchased Perkin-Elmer RBHA2AM400UA; host or cells: HEK293 cell membranes
Put plainly: A2a receptor competition binding assay using Scintillation Proximity technology. The following applies: membranes from HEK293 cells expressing human A2a receptor; 0.5 nM tritiated radioligand; SPA beads; 1 h room temperature. As for the experimental part:
Binding affinities of compounds of the invention for the human A2a receptor were determined in a competition binding assay using Scintillation Proximity technology. Thus, 0.3 μg of membranes from HEK293 cells expressing the human A2a receptor were incubated with a compound of the invention at concentrations ranging from 3000 nM to 0.15 nM in a reaction mixture containing also 0.5 nM of a tritiated form of 5-amino-7-[2-phenethyl]-2-(furan-2-yl)-7H-pyrazolo[4,3-e][1,2,4]triazolo[1,5-c]pyrimidine (the tritiated compound) and 100 μg of wheat germ agglutin-coated yttrium silicate SPA beads for one hour at room temperature with agitation. The beads were then allowed to settle to the bottom of the wells for 1 hr, after which the membrane-associated radioactivity was determined by scintillation counting in a TopCount microplate reader. Ki values were determined using the Cheng-Prusoff equation.
Summary of Materials and Methods Used in A2a Activity Determination:
HEK293 cells expressing the human, rat, dog or monkey adenosine 2a receptor (Purchased from Perkin-Elmer # RBHA2AM400UA).
The Tritiated compound was prepared in-house by MRL Radiochemistry according to published methods.
Wheat germ agglutinin-coated yttrium silicate SPA beads (GE Healthcare#RPNQ0023). Dilute to 25 mg/ml in assay buffer.
Assay Buffer was prepared in house: Dulbecco's calcium and magnesium free phosphate buffered saline+10 mM MgCl2
Adenosine deaminase from calf intestine, 10 mg/2 ml (Roche) 10 102 105 001).
A2a antagonist standard (9-chloro-1-(2-furanyl)-[1,2,4]triazolo1,5-c]quinazolin-5-amine from Tocris Bioscience)
Make eight 1:3 serial dilutions in 100% DMSO from a 3 mM compound stock
Transfer 50 nl of compound into a 384-well OptiPlate (Perkin Elmer).
Typically, final concentrations of compound used in the assay ranged from 3000 nM to 0.152 nM.
Dilute a solution of the Tritiated compound to 1.25 nM in assay buffer. This is a 2.5× solution. The final concentration in the assay is 0.5 nM. Calculate the concentration by counting two 5 μl aliquots.
Use 0.25 ug of membrane/well. Dilute membranes to 9.7 μg/ml in assay buffer. Treat with 20 ug/ml adenosine deaminase (ADA) for 15 minutes at room temperature to degrade endogenous adenosine.
Use 100 μg/well wheat germ agglutinin-coated yttrium silicate SPA beads.
Mix ADA-treated membranes and SPA beads together for 30 min prior to assay.
To the Perkin-Elmer Optiplate-384 containing the compound titration add 20 μl of 2.5× solution of the Tritiated compound and 30 μl of the membrane-bead mixture. Incubate for one hour at room temperature with agitation.
Include total binding (assay buffer+1% DMSO) and non-specific binding (CGS15943, 1 μM) wells.
Allow the beads to settle for one hour.
A curve fitting program (i.e., Prism, Activity Base, Chemcart) is used to determine the EC50. The Ki value is calculated using the Cheng-Prusoff equation: K i=EC50/(1+(radioligand concentration/Kd)).
For the compound `COc1cccc2c1nc(N)n1nc(CCN3Cc4ccccc4C(C)(C)C3)nc21` [Ex-62, 2-(2-(4,4-dimethyl-3,4-dihydroisoquinolin-2(1H)-yl)ethyl)-7-methoxy-[1,2,4]triazolo[1,5-c]quinazolin-5-amine], the EC50 stood at 6.2 nM.

The compound `COc1cccc2c1nc(N)n1nc(CN3CCc4ccc(-c5cncnc5)cc4C3)nc21` [Ex-165, 7-methoxy-2-((7-(pyrimidin-5-yl)-3,4-dihydroisoquinolin-2(1H)-yl)methyl)-[1,2,4]triazolo[1,5-c]quinazolin-5-amine] yielded an EC50 of 4.4 nM.

In the case of `COc1cccc2c1nc(N)n1nc(CCN3CCCn4nccc43)nc21` [Ex-59, 2-(2-(6,7-dihydropyrazolo[1,5-a]pyrimidin-4(5H)-yl)ethyl)-7-methoxy-[1,2,4]triazolo[1,5-c]quinazolin-5-amine], it took 9.6 nM to reach a half-maximal effect (EC50).

Regarding `COc1cccc2c1nc(N)n1nc(CN3CCc4ccc(-c5cnn(C)c5C(F)(F)F)cc4C3)nc21` [Ex-182, 7-methoxy-2-((7-(1-methyl-5-(trifluoromethyl)-1H-pyrazol-4-yl)-3,4-dihydroisoquinolin-2(1H)-yl)methyl)-[1,2,4]triazolo[1,5-c]quinazolin-5-amine], the EC50 was found to be 2.8 nM.

As to `COc1cccc2c1nc(N)n1nc(CCN3CCc4cccnc4C3)nc21` [Ex-45, 2-(2-(5,6-dihydro-1,7-naphthyridin-7(8H)-yl)ethyl)-7-methoxy-[1,2,4]triazolo[1,5-c]quinazolin-5-amine], it took 4.3 nM to reach a half-maximal effect (EC50).

For `COc1cccc2c1nc(N)n1nc(CCN3CCn4cc(C(F)(F)F)nc4C3)nc21` [Ex-58, 7-methoxy-2-(2-(2-(trifluoromethyl)-5,6-dihydroimidazo[1,2-a]pyrazin-7(8H)-yl)ethyl)-[1,2,4]triazolo[1,5-c]quinazolin-5-amine], it took 0.9 nM to reach a half-maximal effect (EC50).

For the compound `COc1cccc2c1nc(N)n1nc(CCN3Cc4oc(C)nc4C(C)(C)C3)nc21` [Ex-235, 7-Methoxy-2-(2-(2,7,7-trimethyl-6,7-dihydro-oxazolo[5,4-c]pyridin-5(4H)-yl)ethyl)-[1,2,4]triazolo[1,5-c]quinazolin-5-amine, TFA], the EC50 is 2.8 nM.

As to `COc1cccc2c1nc(N)n1nc(CCN3Cc4cnn(C)c4C3)nc21` [Ex-246, 7-methoxy-2-(2-(1-methylpyrrolo[3,4-c]pyrazol-5(1H,4H,6H)-yl)ethyl)-[1,2,4]triazolo[1,5-c]quinazolin-5-amine], the EC50 was 5.4 nM.

`COc1cccc2c1nc(N)n1nc(CCN3CCCc4c3c(C(F)(F)F)nn4C)nc21` [Ex-43, 7-methoxy-2-(2-(1-methyl-3-(trifluoromethyl)-6,7-dihydro-1H-pyrazolo[4,3-b]pyridin-4(5H)-yl)ethyl)-[1,2,4]triazolo[1,5-c]quinazolin-5-amine] returned an EC50 of 8.4 nM.

Turning to `COc1cccc2c1nc(N)n1nc(CCN3CCn4c(nnc4SC)C3)nc21` [Ex-1, 7-methoxy-2-(2-(3-(methylthio)-5,6-dihydro-[1,2,4]triazolo[4,3-a]pyrazin-7(8H)-yl)ethyl)-[1,2,4]triazolo[1,5-c]quinazolin-5-amine], the response was half-maximal at 4 nM (EC50).

In the case of `COc1cccc2c1nc(N)n1nc(CN3CCOc4ccccc43)nc21` [Ex-120, 2-((2H-benzo[b][1,4]oxazin-4(3H)-yl)methyl)-7-methoxy-[1,2,4]triazolo[1,5-c]quinazolin-5-amine], the EC50 was found to be 1.5 nM.

In turn, `COc1cccc2c1nc(N)n1nc(CCN3CCc4cccnc43)nc21` [Ex-21, 2-(2-(2,3-dihydro-1H-pyrrolo[2,3-b]pyridin-1-yl)ethyl)-7-methoxy-[1,2,4]triazolo[1,5-c]quinazolin-5-amine] gave an EC50 of 31.2 nM.

Regarding `COc1cccc2c1nc(N)n1nc(CCN3Cc4ccc(N5CCC(N6CCOCC6)CC5)nc4C3)nc21` [Ex-72], the EC50 came to 5 nM.

`Nc1nc2c(F)cccc2c2nc(CCN3CCCc4ccccc43)nn12` [Ex-84] had an EC50 of 6.3 nM.

Turning to `CCc1nc2c(s1)CN(CCc1nc3c4cccc(OC)c4nc(N)n3n1)C2` [Ex-243, 2-(2-(2-ethyl-4H-pyrrolo[3,4-d]thiazol-5(6H)-yl)ethyl)-7-methoxy-[1,2,4]triazolo[1,5-c]quinazolin-5-amine], the EC50 turned out to be 1.3 nM.

Regarding `Nc1nc2cc(F)c(F)cc2c2nc(CCN3Cc4cccnc4C3)nn12` [Ex-99], the response was half-maximal at 112 nM (EC50).

`COc1cccc2c1nc(N)n1nc(CN3CCn4c(C(F)(F)F)nnc4C3(C)C)nc21` [Ex-146, 2-((8,8-dimethyl-3-(trifluoromethyl)-5,6-dihydro-[1,2,4]triazolo[4,3-a]pyrazin-7(8H)-yl)methyl)-7-methoxy-[1,2,4]triazolo[1,5-c]quinazolin-5-amine]: a half-maximal effect (EC50) was put at 29.9 nM.

The compound `CCc1nnc2n1CCN(CCc1nc3c4cccc(OC)c4nc(N)n3n1)C2` [Ex-22, 2-(2-(3-ethyl-5,6-dihydro-[1,2,4]triazolo[4,3-a]pyrazin-7(8H)-yl)ethyl)-7-methoxy-[1,2,4]triazolo[1,5-c]quinazolin-5-amine] yielded an EC50 of 6.7 nM.

With `COc1cccc2c1nc(N)n1nc(CN3CCCCc4cccnc43)nc21` [Ex-157, 2-((7,8-dihydro-5H-pyrido[2,3-b]azepin-9(6H)-yl)methyl)-7-methoxy-[1,2,4]triazolo[1,5-c]quinazolin-5-amine], the midpoint of the response, the EC50, lay at 1.6 nM.

For the compound `COc1cccc2c1nc(N)n1nc(CC(CF)N3Cc4cccnc4C3)nc21` (stereo not shown) [Ex-104], the EC50 is 10.1 nM and 14.3 nM.

As for `Nc1nc2c(OCF)cccc2c2nc(CN3CCc4cccnc4C3)nn12` [Ex-205, 2-((5,6-dihydro-1,7-naphthyridin-7(8H)-yl)methyl)-7-(fluoromethoxy)-[1,2,4]triazolo[1,5-c]quinazolin-5-amine], a half-maximal response (EC50) required 10.9 nM.

In turn, `COc1cccc2c1nc(N)n1nc(CCN3CCc4ccc(-c5cnc(C(F)(F)F)nc5)cc4C3)nc21` [Ex-187, 7-methoxy-2-(2-(7-(2-(trifluoromethyl)pyrimidin-5-yl)-3,4-dihydroisoquinolin-2(1H)-yl)ethyl)-[1,2,4]triazolo[1,5-c]quinazolin-5-amine] gave an EC50 of 2.9 nM.

`N#Cc1cccc2c1nc(N)n1nc(CN3CCc4cccnc4C3)nc21` [Ex-196, 5-amino-2-((5,6-dihydro-1,7-naphthyridin-7(8H)-yl)methyl)[1,2,4]triazolo[1,5-c]quinazoline-7-carbonitrile] yielded an EC50 of 274 nM.

Compound `COc1cccc2c1nc(N)n1nc(CCN3CCn4nc(C(F)(F)F)nc4C3)nc21` [Ex-11] showed an EC50 of 2.7 nM.

Take `CCN(CC)c1ccnc2c1CCN(CCc1nc3c4cccc(OC)c4nc(N)n3n1)C2` [Ex-74]: the EC50 turned out to be 4.3 nM.

In turn, `COc1cccc2c1nc(N)n1nc(CCN3CCc4nc(C)oc4C3)nc21` [Ex-28, 7-methoxy-2-(2-(2-methyl-6,7-dihydrooxazolo[5,4-c]pyridin-5(4H)-yl)ethyl)-[1,2,4]triazolo[1,5-c]quinazolin-5-amine] returned an EC50 of 2.2 nM.

On to `COc1cccc2c1nc(N)n1nc(CCN3Cc4ccc(F)cc4C3)nc21` [Ex-48, 2-(2-(5-fluoroisoindolin-2-yl)ethyl)-7-methoxy-[1,2,4]triazolo[1,5-c]quinazolin-5-amine], for which the EC50 came out at 4.6 nM.

Regarding `COc1cccc2c1nc(N)n1nc(CN3CCCCc4ccccc43)nc21` [Ex-128, 7-methoxy-2-((2,3,4,5-tetrahydro-1H-benzo[b]azepin-1-yl)methyl)-[1,2,4]biazolo[1,5-c]quinazolin-5-amine], the EC50 amounted to 2 nM.
